Consider two molecules from publication PMC4104029, “Mechanism of Action of Compound-13: An α1-Selective Small Molecule Activator of AMPK” (Chemistry & Biology, 2014).

In assay [1] the target is T1, muscle glycogen phosphorylase b (Mus musculus, UniProt Q9WUB3).
T1 construct: made in house; host or cells: E. coli
Kind of assay: Glycogen phosphorylase assay. It counts as biochemical. To be noted: concentrations up to 100 μM; data not shown. The source says:
Supplemental Experimental Procedures:
Materials. Compounds 2 and 13 were synthesised by PeakDale Molecular and Natalia Shpiro (MRC-PPU, Dundee), respectively, as described previously (Gomez-Galeno, et al., 2010).
A769662 was from Selleck Chemicals and AICAR from Toronto Research Chemicals. Mouse FBP1, PYGM and PFK1 (muscle isoform) were cloned, expressed and purified from E.coli using standard techniques. AMPD was purified from chicken muscle (Smiley, et al., 1967).
PP2Cα expressed in E.coli was from the Division of Signal Transduction Therapy (DSTT, Dundee). Peptides were synthesised by GL Biochem (Shanghai). [γ-32P]-ATP, [1-14C]-acetic acid and [9,10-3H(N)]-palmitic acid were from PerkinElmer. pS79 ACC1 (#3661), ACC1 […]
antibodies were purchased from Cell Signaling Technology. Anti-AMPKα1 (07-350) and AMPKα2 (07-363) used for immunoblotting were from Merck-Millipore. Anti-AMPKγ1 was from Origene (clone Y308). Anti-AMPKγ2 was from Epitomics (S1562). Anti-tubulin (B-5-1-2), anti-FLAG (F7425) and anti-FLAG M2 agarose were from Sigma. Anti-HA (HA.11) was from Covance Research Products. AMPKα1/2 antibodies used for immunoprecipitation kinase assays were described previously (Sakamoto, et al., 2006). […]
AMPK preparations. […] Isolated human AMPKα subunits were expressed as N-terminal GST-fusions in E.coli and activated as described for heterotrimeric complexes. […]

In assay [2] the test system is AMPK-KO (AMPKα1−/− -α2−/−) hepatocytes. Kind of assay: Lipid synthesis, [1-14C]acetate incorporation. It counts as cell-based, mouse. As for the experimental part: Figure 5 C13 Inhibits Lipid Synthesis and Fatty Acid Esterification in Mouse Hepatocytes in an AMPK-Dependent Manner (A) Mouse hepatocytes were treated with the indicated concentrations of C13 and labeled with [1-^14C]acetate for 3 hr. A769662 (100 μM) and AICAR (0.5 mM) were included as positive controls. Rates of fatty acid and sterol synthesis were estimated by incorporation into saponifiable and nonsaponifiable lipids. Results are expressed as the mean acetate incorporated in micromoles per gram-hour ± SD and are representative of two independent experiments. […] Incorporation into triglyceride was determined as described in Experimental Procedures and results are expressed as palmitate incorporated in micromoles per gram-hour ± SD and are representative of three independent experiments. […] Results are expressed as percentage WT vehicle and represent the mean ± SD for three independent experiments. […]
Lipid synthesis was determined by labeling adherent cultures of primary hepatocytes with [1-^14C]acetate. […] Lipogenesis in hepatocytes from AMPKβ1/β2-KO mice was determined in media containing [^3H]acetate (0.2 mCi⋅mmol^−1). After 4 hr labeling, total lipids were extracted using the method of [Bligh and Dyer (1959)], and incorporated [^3H] was determined by scintillation counting. The results are expressed as micromoles acetate incorporated per gram-hour.

T1 sequence (Q9WUB3 whole entry): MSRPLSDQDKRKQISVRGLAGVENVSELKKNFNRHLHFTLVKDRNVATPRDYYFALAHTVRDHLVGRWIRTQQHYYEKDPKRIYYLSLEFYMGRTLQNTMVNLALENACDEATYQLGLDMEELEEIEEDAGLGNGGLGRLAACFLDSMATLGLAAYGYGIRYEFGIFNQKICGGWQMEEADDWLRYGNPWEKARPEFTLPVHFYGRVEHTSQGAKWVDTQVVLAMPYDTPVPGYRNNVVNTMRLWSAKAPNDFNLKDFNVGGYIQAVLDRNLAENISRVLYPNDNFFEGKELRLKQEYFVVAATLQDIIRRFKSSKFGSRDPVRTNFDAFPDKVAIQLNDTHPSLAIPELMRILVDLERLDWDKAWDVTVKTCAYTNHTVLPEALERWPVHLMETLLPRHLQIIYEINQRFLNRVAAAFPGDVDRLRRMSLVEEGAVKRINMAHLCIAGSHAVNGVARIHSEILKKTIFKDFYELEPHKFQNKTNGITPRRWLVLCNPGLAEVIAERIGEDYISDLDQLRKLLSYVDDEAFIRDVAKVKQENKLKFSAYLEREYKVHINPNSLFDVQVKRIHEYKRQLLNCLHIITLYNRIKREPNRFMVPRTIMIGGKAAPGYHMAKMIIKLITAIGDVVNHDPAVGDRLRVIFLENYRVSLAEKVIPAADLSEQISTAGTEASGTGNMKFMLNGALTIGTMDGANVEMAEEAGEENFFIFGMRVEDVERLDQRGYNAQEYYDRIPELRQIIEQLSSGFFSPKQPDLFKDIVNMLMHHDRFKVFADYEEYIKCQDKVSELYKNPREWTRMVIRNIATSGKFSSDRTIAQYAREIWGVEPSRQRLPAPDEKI

As for `O=P(O)(O)c1ccc(-c2cc(O)on2)o1` [Compound C2, 5-(5-hydroxyl-isoxazol-3-yl)-furan-2-phosphonic acid], the “effect on enzyme activity” value in assay [1] is “None of these enzymes were affected”.
On to `CC(C)C(=O)OCOP(=O)(OCOC(=O)C(C)C)c1ccc(C2=NOC(=O)C2)o1` [Compound C13], for which the anti-lipogenic effect result in assay [2] is given as “resistant”. In addition, in assay [2] (highest concentrations of C13), the impairment of lipogenesis entry is “≈ 20%”.
